In US20240316050A1 (OXFORD UNIVERSITY INNOVATION LIMITED, priority 2020, published 2024):
Entries after “also recorded” stand apart in the source; their conditions may differ. Structures can show the parent of a compound that is named as a salt.

Legend:
HUVECs [1] = experiment: Matrigel endothelial tube formation, HUVECs from NT and PE pregnancies; assay type: cell-based, human; settings: sepiapterin 1 μM
Excerpt: Umbilical cords were collected at birth and human umbilical vein endothelial cells (HUVECs) were isolated and stored in liquid nitrogen according to standard operating procedures within a research tissue bank (Oxford Cardiovascular Tissue Bioresource; ethical approval 09/H0606/68, 07/H0606/148 and 11/SC/0230). For the purpose of the current study, HUVECs were identified from normotensive pregnancies and pregnancies complicated by preeclampsia, matched for maternal age and gestation. HUVECs and human uterine microvascular endothelial cells (HutMECs; Cat C-12295, Promocell) were cultured in EBM2 (endothelial basal medium) with bullet kit as recommended (Cat CC-3162, Lonza). All cell cultures were maintained in humidified 5% CO2 at 37° C. […]
To assess tube formation ability of endothelial cells, a 96-well plate was evenly coated with 50 μl of growth factor-reduced Matrigel (BD Biosciences, UK). […] Images were saved as TIFF files, and tube formation analysed using AngioSys 1.0 (TCS Cell Works, UK). […] The total length of lines was quantified in pixels (then converted to micrometers) and total number of branch points was recorded.

[2] = test system: sEND.1 mouse endothelial cell line; experiment: Matrigel endothelial tube formation, sEND.1 cells with Gch1 siRNA; assay type: cell-based; settings: sEND.1 treated with specific Gch1 siRNA; sepiapterin 1 μM
Procedure: (§1) To assess tube formation ability of endothelial cells, a 96-well plate was evenly coated with 50 μl of growth factor-reduced Matrigel (BD Biosciences, UK). Endothelial cells were plated at a density of 1×10^4 cells per well. The plate was incubated at 37° C. for 16 hours before photomicroscopy. Each sample was replicated in triplicate and the image of each well was taken at ×4 magnification using a Nikon Eclipse TE2000-U microscope (Nikon Ltd, London, UK). Images obtained from Matrigel assay were adjusted for mean brightness using acquisition software to control the bright field illumination of the microscope (Simple PCI version 6.6.0.0; Hamamatsu Corporation, Sewickley, PA). Images were saved as TIFF files, and tube formation analysed using AngioSys 1.0 (TCS Cell Works, UK). Image threshold was adjusted based on the intensity values of the monochrome image and each image then skeletonized to reduce to one pixel wide. […] The total length of lines was quantified in pixels (then converted to micrometers) and total number of branch points was recorded.
(§2) GCH1-specific, ON-TARGETplus SMARTpool siRNA was purchased from Dharmacon Thermo Scientific. […] The cells were cultured for 72 h, and gene silencing was detected by analysis of GTPCH protein expression by Western blotting using GTPCH-specific antibodies (a gift from S.Gross, Cornell University New York), in cells using standard protocols.

HUVECs [3] = experiment: Intracellular BH4 and biopterins by HPLC in HUVECs; assay type: cell-based, human
Excerpt: (§3) Umbilical cords were collected at birth and human umbilical vein endothelial cells (HUVECs) were isolated and stored in liquid nitrogen according to standard operating procedures within a research tissue bank (Oxford Cardiovascular Tissue Bioresource; ethical approval 09/[…]/68, 07/[…]/148 and 11/SC/0230). For the purpose of the current study, HUVECs were identified from normotensive pregnancies and pregnancies complicated by preeclampsia, matched for maternal age and gestation. HUVECs and human uterine microvascular endothelial cells (HutMECs; Cat C-12295, Promocell) were cultured in EBM2 (endothelial basal medium) with bullet kit as recommended (Cat CC-3162, Lonza). All cell cultures were maintained in humidified 5% CO2 at 37° C. Primary HUVEC and HutMEC cells, obtained between passages 1-3 were and passages 4-6, respectively, were used for all experiments. sEnd.1 endothelial cells were grown in Dulbecco's modified Eagle's medium (Invitrogen) supplemented with glutamine (2 mmol/liter), penicillin (100 units/ml), and streptomycin (0.1 mg/ml).

[4] = target: T1, endothelial nitric oxide synthase (eNOS) (Homo sapiens, UniProt P29474); experiment: NO synthesis by eNOS (14C arginine to citrulline conversion) in HUVECs; assay type: cell-based; settings: HUVECs from NT and PE pregnancies; sepiapterin 1 μM
T1 construct: endogenous in cells; host or cells: primary HUVECs (passages 1-3) from normotensive and pre-eclamptic pregnancies
Excerpt: Umbilical cords were collected at birth and human umbilical vein endothelial cells (HUVECs) were isolated and stored in liquid nitrogen according to standard operating procedures within a research tissue bank (Oxford Cardiovascular Tissue Bioresource; ethical approval 09/H0606/68, 07/H0606/148 and 11/SC/0230). For the purpose of the current study, HUVECs were identified from normotensive pregnancies and pregnancies complicated by preeclampsia, matched for maternal age and gestation. […] All cell cultures were maintained in humidified 5% CO2 at 37° C.
NO synthesis by eNOS was assessed by conversion of ^14C L-arginine to citrulline, in the presence and absence of N-monomethyl-L-arginine (1 mM, Sigma), as described previously^9. Briefly, HUVES were incubated for 4 hours at 37° C. in 200 μl Krebs-HEPES buffer containing ^14C L-arginine (2 μl of 50 μCi/mL). Samples were run on a SCX 300 cation exchange HPLC column (Sigma) with online scintillation detection. Background signals were corrected from samples with ^14C L-arginine alone without cells.

[5] = test system: human uterine microvascular endothelial cells (HutMECs); experiment: Matrigel endothelial tube formation, HutMECs with GCH1 siRNA; assay type: cell-based; settings: HutMECs treated with GCH1 siRNA; sepiapterin 1 μM
Procedure: as §1, §2

[6] = test system: sEnd.1 murine endothelial cells; experiment: Intracellular BH4 and biopterins by HPLC in sEnd.1 cells; assay type: cell-based, mouse
Excerpt: as §3, with “mg/ml). GCH1-specific, ON-TARGETplus SMARTpool siRNA was purchased from Dharmacon Thermo Scientific. […] The cells were cultured for 72 h, and gene silencing was detected by analysis of GTPCH protein expression by Western blotting using GTPCH-specific antibodies (a gift from S.Gross, Cornell University New York), in cells using standard protocols.” for “mg/ml).”

uterine arteries = experiment: Wire myography of isolated uterine arteries with inhibitors in the bath; set-up: species or system mouse
Excerpt: All drugs used were purchased from Sigma Chemical Company.

[7] = Plasma and uterine artery biopterins by HPLC in treated pregnant mice; settings: for systemic oxidation of BH4 to BH2: Gch1 deficient and control mice, oral supplementation
Procedure: After centrifugation at 13,200 rpm for 10 min at 4° C., supernatant was removed and ice-cold acid precipitation buffer (1 M phosphoric acid, 2 M trichloroacetic acid, 1 mM dithioerythritol) was added. Following centrifugation at 13,200 rpm for 10 min at 4° C., the supernatant was removed and injected onto the HPLC system.

Gch1^fl/flTie2cre mice = experiment: Systolic blood pressure by tail-cuff plethysmography in pregnant mice; settings: oral 5-MTHF begun at day 10.5 or 16.5
Procedure: Female Gch1^fl/flTie2cre mice and their Gch1^fl/fl littermates (thereafter referred to as wild-type) were used for all experiments at 10 to 16 weeks.
Systolic blood pressure and heart rate was determined using a computerized tail-cuff system (Visitech, USA) in conscious mice^6. Experiments were performed between the hours of 8 and 12 am. The animal tails were passed through a cylindrical latex tail-cuff and taped down to reduce movement. Twenty readings were taken per mouse of which the first 5 readings were discarded. The remaining 15 readings were used to calculate the mean systolic blood pressure and heart rate in each mouse.

[8] = target: T2, endothelial nitric oxide synthase (eNOS) (Mus musculus, UniProt P70313); experiment: eNOS activity (14C arginine to 14C citrulline) in sEnd.1 cells; assay type: cell-based; settings: 5MTHF 10 μm, 16 h (FIG. 34)
T2 construct: Conversion of 14C arginine to 14C citrulline was used as a measure of endothelial nitric oxide synthase activity (eNOS); endogenous in cells; host or cells: sEnd.1 murine endothelial cell line

women with pre-eclampsia = settings: folic acid supplementation, clinical trials; cited from earlier work
sEnd.1 cells = experiment: Superoxide and ROS production by DHE HPLC in sEnd.1 cells; assay type: cell-based, mouse; settings: folic acid 10 μm, 16 h (FIG. 33)
Procedure: Measurement of 2-hydroxyethidium formation by HPLC was used to quantify superoxide production, as previously described. Briefly, the cells were washed three times in PBS and incubated in Krebs-Hepes buffer in the presence or absence of I-NAME (100 μm). After 30 min, dihydroethidium (25 μm) was added, and the cells were then incubated for an additional 20 min at 37° C. The cells were then harvested by scraping, centrifuged, and lysed in ice-cold methanol. Hydrochloric acid (100 mm) was added (1:1 v/v) prior to loading into the autosampler for analysis. All of the samples were stored in darkened tubes and protected from light at all times. Separation of ethidium, oxyethidium, and dihydroethidium was performed using a gradient HPLC system (Jasco) with an ODS3 reverse phase column (250 mm, 4.5 mm; Hichrom), and quantified using a fluorescence detector set at 510 nm (excitation) and 595 nm (emission). A linear gradient was applied from Mobile phase A (0.1% TFA (v/v)) to Mobile phase B (0.1% TFA (v/v) in acetonitrile) over 23 min (30% acetonitrile to 50% acetonitrile).

people with PKU = settings: most people with PKU; cited from earlier work

C[C@H](O)C(=O)C1=Nc2c(nc(N)[nH]c2=O)NC1 [sepiapterin]
endothelial cell growth and tubule formation (HUVECs [1]): restored; also recorded: rescued
endothelial cell growth and tubule formation [2]: fully restored; also recorded: rescued
BH4 levels (HUVECs [3]; HUVECs from hypertensive/pre-eclamptic pregnancies, sepiapterin 1 μM): normalized
eNOS activity [4]: normalized; also recorded: significantly increased
endothelial cell growth and tubule formation [5]: rescued
BH4 levels ([6]; sEND.1 treated with specific Gch1 siRNA, sepiapterin 1 μM): increased

COc1ccc2c(c1)c(CC(=O)O)c(C)n2C(=O)c1ccc(Cl)cc1 [indomethacin]
endothelium-dependent vasodilation to ACh in the presence of inhibitors (uterine arteries; uterine arteries, pregnant or non-pregnant wild-type and Gch1^fl/flTie2cre mice, indomethacin 10 μM, apamin 50 nM, charybdotoxin 100 nM): minimal effect

C[C@H](O)[C@H](O)[C@H]1CNc2nc(N)[nH]c(=O)c2N1 [BH4, tetrahydrobiopterin]
systemic oxidation of BH4 to BH2 [7]: rapidly oxidised
BH4/BH2+B (total biopterins) ratio ([7]; pregnant mice, E18.5, oral BH4 200 mg/kg/day): reduction
plasma BH4 levels ([7]; pregnant mice, E18.5, oral in chow from 3 days before timed matings, BH4 200 mg/kg/day, 5-MTHF 15 mg/kg/day): increased

CN1c2c(nc(N)[nH]c2=O)NC[C@@H]1CNc1ccc(C(=O)N[C@@H](CCC(=O)O)C(=O)O)cc1 [5-MTHF, 5-methyltetrahydrofolate]
time from initiation of treatment to reduction in blood pressure (Gch1^fl/flTie2cre mice): ≤ 2 days
systemic oxidation of BH4 to BH2 [7]: prevented

COC(=O)[C@@H](N)CCCNC(=N)N[N+](=O)[O-] [L-NAME]
ACh vasorelaxations in the presence of L-NAME (uterine arteries; Gch1^fl/flTie2cre uterine arteries, L-NAME 100 μM): did not significantly inhibit
vasoconstriction response to U46619 in the presence of L-NAME (uterine arteries; uterine arteries of pregnant Gch1^fl/flTie2cre mice, L-NAME 100 μM): unchanged
vasoconstriction response to U46619 in the presence of L-NAME (uterine arteries; uterine arteries of pregnant wild-type mice, L-NAME 100 μM): increased
activity of endothelial nitric oxide synthase (L-arginine to L-citrulline conversion) [8]: inhibited

Nc1nc2ncc(CNc3ccc(C(=O)N[C@@H](CCC(=O)O)C(=O)O)cc3)nc2c(=O)[nH]1 [folic acid]
clinical benefit in pre-eclampsia (women with pre-eclampsia): no benefit
BH4 levels ([6]; sEnd.1 cells, folic acid 10 μm, 16 h at 37° C., with or without MTX 1 μm (FIG. 28)): no effect
generation of reactive oxygen species (ROS) (sEnd.1 cells): increased

C[C@H](O)[C@H](O)[C@H]1CNc2nc(N)[nH]c(=O)c2N1 [sapropterin dihydrochloride]
clinical benefit in PKU (people with PKU): little or no benefit

CN1c2c([nH]c(N)nc2=O)NC[C@@H]1CNc1ccc(C(=O)N[C@@H](CCC(=O)O)C(=O)O)cc1 [Arcofolin]
BH4 levels (HUVECs [3]; HUVECs from pregnancies with high blood pressure, 5MTHF 10 μm, 16 h at 37° C. (FIG. 36)): increases
